According to patent US20250002974A1, “PROTECTING FULLY FUNCTIONAL NUCLEOTIDES FROM DEGRADATION” (Illumina, Inc., priority 2023, published 2025):

How the values were obtained:
[1] = lyophilized ffN cakes with 30 mM cationic additive staged at 60° C. for 3 days, diphosphate by HPLC; format: physicochemical; details: 30 mM additive, 60° C. 3 days
Description: FIG. 12 provides data showing the percent diphosphate ffC detected via HLPC after staging for 60° C. for 3 days (3D) in the presence of 30 mM imidazolium additive (lyophilized cakes; n=2; CTRL=control sample with no additive).
FIG. 13 provides data showing the percent diphosphate ffC detected via HLPC after staging for 60° C. for 3 days (3D) in the presence of 30 mM pyridinium additives (lyophilized cakes; n=2; CTRL=control with no additive).
FIG. 14 provides data showing the percent diphosphate ffC detected via HLPC after staging for 60° C. for 3 days (3D) in the presence of 30 mM quaternary additives (lyophilized cakes; n=2; CTRL=control with no additive).
The efficacies of the other cationic substrates were also tested. This was performed using lyophilized ffN cake samples that were formulated with and without said additives, and by staging at an arbitrarily selected stress condition of 60° C. for a period of 3 days.

[2] = ffN stability staged with surfactants in solution, 45° C. 7 days; format: physicochemical; details: 45° C. for 7 days, solution format
Description: Each of the surfactants was tested at two different concentrations, 0.5% and 2%.

[3] = ffNs stored with CHAPS at 45° C. for 7 or 21 days, percent peak area retention; format: physicochemical
Description: CHAPS was tested to determine if it prevented degradation of ffNs as the level of heat stress increased. In one of the reaction conditions ffNs were stored with CHAPS for 7 days at 45° C., and the other reaction condition ffNs were stored with CHAPs for 21 days at 45° C.

[4] = stability of ffNs in dry state (TBMACL) or liquid state (CHAPS); format: physicochemical
Source text: FIG. 24 provides data showing that addition of the cationic compound Tributylmethylammonium chloride (TBMACL) to ffNs in a dry state increases stability of triphosphate on the ffNs.
FIG. 25 provides data showing that the addition of CHAPS as well as CHAPS and TBMACL to ffNs in a liquid state increases the stability of intact ffNs.

[5] = ffN stress test with or without 10 mM DADMAC, purity by HPLC peak area percent; format: physicochemical
Description: DADMAC (diallyldimethylammonium chloride): 100 μM ffNs were stressed in the presence of 10 mM DADMAC (FIG. 19) in 15 mM 3-(N-morpholino)propanesulfonic acid (MOPS) buffer and 5× glycine buffer (250 mM glycine pH 9.9, 250 mM NaCl, 5 mM ethylediaminetetraacetic acid (EDTA)). Each type of ffNs were tested: ffA, ffC, ffT, and ffG.
The samples were staged for 2 days at 40° C. in the glycine buffer, 2 days at 65° C. and 7 days at 4° C. in the MOPS buffer. DADMAC was tested to see if it could be added to the incorporation mix or ffN mixtures without causing any negative interactions with ffNs.

[6] = 1 to 40 mM TBACL; 45° C. 7 days; solution format
Source text: As such, even higher concentrations of cations were not pursued.

[7] = ffNs stored with TBMACL for 35 days at 35° C. or 45° C., diphosphate production; format: physicochemical
Description: TBMACL was tested to determine if it provided protection to the triphosphate of ffNs as heat stress increased. ffNs were stored with TBMACL for 35 days. In one of the storage conditions, the temperature was 35° C. and in the other storage condition, the temperature was 45° C. […] At 35° C. for 35 days TBMACL caused a 10% reduction in diphosphate production. This can be compared to 45° C. for 35 days where TBMACL caused a 17% reduction in diphosphate production.

Arthrobacter russicus = experiment: bacterial growth in incorporation mix with TBMACL titration, plating for CFU/ml; format: cell-based
Description: To confirm the biocidal effect of TBMACl within liquid sequencing reagents, a titration of TBMACL from 9 mM to 90 mM in incorporation mix was prepared. These experiments were carried out with the omission of polymerase and ffNs in the formulation, as they were not required for the further analysis. On day 0, samples were inoculated with 3×10^6 CFU/ml of the bacteria Arthrobacter russicus. The samples were staged at 12° C. for 0, 14 and 30 days, followed by plating to determine CFU/ml. FIGS. 26-27 provide data showing use of a bulky cationic compound to inhibit bacterial growth. More specifically, FIG. 26 illustrates A. russicus growth in a titration of TBMACL over 30 days at 12° C.; the data shown is on a linear Y axis. FIG. 27 illustrates the same data, with a logarithmic scale Y axis. It may be understood from FIGS. 26-27 that the greater the concentration of TBMACL, the greater the inhibition of bacterial growth. […] In the absence of TBMACL, the CFU/ml increase by about 1.8-fold over 30 days. […] The sample with 90 mM TBMACL appeared to kill essentially all bacteria by day 14, and all bacteria appeared to remain dead at day 30.

With Cl.N [ACL, ammonium chloride] the “effect on triphosphate stability / diphosphate formation” value [1] was “higher level of diphosphate formation”.

With CCCC[n+]1ccccc1.[Br-] [BPB, 1-butylpyridinium bromide] the “reduction in diphosphate ffN formed vs control without additive” value [1] was “approximately 17%”.

In the case of C[C@H](CCC(=O)NCCC[N+](C)(C)CCCS(=O)(=O)[O-])[C@H]1CC[C@H]2[C@@H]3[C@H](O)C[C@@H]4C[C@H](O)CC[C@]4(C)[C@H]3C[C@H](O)[C@]12C [CHAPS, 3-[(3-cholamidopropyl)dimethylammonio]-1-propanesulfonate], the “increase in ffN retention against the control sample” value [2] is reported as about 40%, the “improvement in percent peak area retention” value ([3]; 7 days at 45° C.) is reported as 27% and the “improvement in percent PA retention” value ([3]; 21 days at 45° C.) is reported as 113%. For the same compound, the “stability of triphosphate species of ffNs” value ([4]; ffNs in a liquid state) was “increased the stability of trisphosphate species”.

In the case of C=CC[N+](C)(C)CC=C.[Cl-] [DADMAC, diallyldimethylammonium chloride], the “effect of DADMAC on ffN purity and diphosphate” value ([5]; high temperatures, all 4 ffNs) is reported as “higher % ffN purity as compared to control and lower levels of diphosphate” and the “effect of DADMAC on ffNs” value ([5]; milder stress conditions) is reported as “no negative effect”.

In the case of CC[n+]1ccc(C(=O)OC)cc1.[I-] [EMPI, 1-ethyl-4-(methoxycarbonyl)pyridinium iodide], the “effect on triphosphate stability / diphosphate formation” value [1] is reported as “negatively impacted triphosphate stability”.

For CCCC[N+](CCCC)(CCCC)CCCC.[Cl-] [TBACL, tetrabutylammonium chloride], the “dephosphorylation (percent diphosphate ffC)” value [6] was “reduced dephosphorylation”.

For CCCC[N+](C)(CCCC)CCCC.[Cl-] [TBMACL, tributylmethylammonium chloride], the “reduction in diphosphate ffN formed vs control without additive” value [1] was at most 23%, the “reduction in diphosphate production” value ([7]; 35° C. for 35 days) was 10% and the “reduction in diphosphate production” value ([7]; 45° C. for 35 days) was 17%. The “stability of triphosphate species of ffNs” value ([4]; ffNs in a dry state) was “increased stability of the trisphosphate species”, the “effect on bioburden load (CFU/ml)” value (Arthrobacter russicus; 9 mM TBMACL, 30 days at 12° C.) was “approximately static effect” and the “reduction of CFU/ml” value (Arthrobacter russicus; 22.5 mM TBMACL, 30 days at 12° C.) was 6 fold. The “reduction of CFU/ml” value (Arthrobacter russicus; 45 mM TBMACL, 30 days at 12° C.) was 8.6 fold, the “reduction of CFU/ml” value (Arthrobacter russicus; 90 mM TBMACL, 30 days at 12° C.) was “about 78,000 fold” and the “biocidal effect on bacterial growth” value (Arthrobacter russicus; titration 9 mM to 90 mM in incorporation mix) was “dose-dependent biocidal effect”.
